The test system of one test is MDA-MB-231 cell line. The test is described as follows: MTS cell viability assay in MDA-MB-231 cell line. In kind it is cell-based. Particulars: Homo sapiens, MDA-MB-231, 72 hours. How it is done: A HER2 positive breast cancer (HER2+BC) cell line, JIMT-1 (cell seeding numbers: 1.0 (JIMT)×10^4 cells/wells (confluency≤30%)) and a triple-negative breast cancer (TNBC) cell line, MDA-MB-231 (cell seeding numbers: 1.0 (M231)×10^4 cells/wells (confluency≤30%) were used in the experiment.
The above cell lines were cultured in Dulbecco's Modified Eagle's Medium (DMEM) or Eagle's minimum Essential Medium (MEM) each containing 10% fetal bovine serum (FBS), streptomycin-penicillin (100 U/ml), and Fungizone (0.625 μg/ml), respectively under 5% CO2, 37° C. environment.
The JIMT-1 cell line and MDA-MB-231 cell line were treated with the indazole derivatives (formulas 1-1 to 1-53) of the present disclosure at a concentration of 10 μM each for 72 hours, and then cell viability was measured using the MTS assay technique. The control group was treated with DMSO as an untreated group (0 μM) of the indazole derivative of the present disclosure.
Specifically, cells were attached to 96 well plates for 24 hours, and then treated with the indazole derivatives for 72 hours. Thereafter, the cells were chromogenized with MTS for 4 hours, and the absorbance was measured at 490 nm using a Spectramax Plus384 microplate analyzer. The significance between the control group and the experimental group was verified using an unpaired Students t-test (*p<0.01; DMSO control vs indazole series).
HER2-positive breast cancer cell lines, BT474 (cell seeding numbers: 2.0 (JIMT)×10^4 cells/wells (confluency≤30%)) sensitive to trastuzumab, and JIMT-1 (cell seeding numbers: 1.0 (JIMT)×10^4 cells/wells (confluency≤30%)) resistant to trastuzumab, and a triple-negative breast cancer cell line, MDA-MB-231 (cell seeding numbers: 1.0 (M231)×10^4 cells/wells (confluency≤30%)) were used.
The BT474, JIMT-1, and MDA-MB-231 cell lines were treated with compound 18c (formula 1-16) and compound 11k (formula 1-7) at concentrations of 0 (DMSO), 0.1, 0.5, 1, 5, 10, and 20 μM, respectively, for 72 hours, and then cell viability was measured using the MTS assay technique as explained by the description of Experimental Example 1. The cell viability experiment was performed independently three times, and the significance was verified by a One-Way Anova, Bonferroni post-hoc test (*p<0.01; DMSO control vs. compound 18c or compound 11k).
In addition, the JIMT-1 and MDA-MB-231 cell lines were treated with compound 11m (formula 1-9), 11n (formula 1-10) and compound 12k (formula 1-13) at concentrations of 0 (DMSO), 0.1, 1, 5, 10, and 20 μM, respectively, for 72 hours, and then cell viability was measured.
Meanwhile, triple-negative breast cancer cell lines MDA-MB-231 and BT549, and a mouse breast cancer cell line 4T1 were treated with compound 38 (formula 1-30) at concentrations of 0 (DMSO), 0.1, 0.5, 1, 2, 5, 10, and 20 μM for 72 hours, and then cell viability was measured.
The indazole derivative of the present disclosure was compared with the benzopyran derivative of the related art (KR 10-2304532) in terms of cell viability of the BT474, JIMT-1, and MDA-MB-231 cell lines (Table 1). In this case, the cell lines were treated with the benzopyran derivative at a concentration of 10 μM for 72 hours and the cell lines were treated with the indazole derivative at a concentration of 10 μM for 72 hours, and then the cell viability was measured.

Test [1] concerns JIMT-1 breast cancer cell line xenograft. The experiment in a line: Tumor growth in xenograft mouse model transplanted with JIMT-1. The class given is in vivo, Balb/c nude mice. Particulars: intraperitoneally, 30 mg/kg compound 18c or 20 mg/kg compound 11k; for tumor volume / tumor weight: compared to the control group. How it is done: This experiment was performed in an in vivo environment using a xenograft mouse model transplanted with the JIMT-1 breast cancer cell line.
6-week-old mice (Balb/c nude mice) were purchased and raised in an environment where they could freely access food and water. The mice were acclimated for more than 7 days, and then were transplanted with tumor cells. Tumor cells were injected subcutaneously into the mammary gland tissue of JIMT-1 breast cancer cells at a density of 3×10^6 cells/mL per individual, and when the tumor reached a size of 50 to 100 mm^3, the indazole derivative of the present disclosure was administered intraperitoneally, and the tumor growth was measured. The experimental groups were treated with either 30 mg/kg of compound 18c (formula 1-16) or 20 mg/kg of compound 11k (formula 1-7), and tumor volume, tumor weight, body weight, and the like were measured every 3 to 4 days from the time of administration until the end of the study.

Test [2] relates to JIMT-1 breast cancer cell line. The experiment in a line: Flow cytometry DNA content (PI), cell cycle arrest and cell death, JIMT-1. The following applies: JIMT-1, 5 and 10 μM, 72 hours, flow cytometer. The class given is cell-based. Here is the method:
The degree of cancer cell death by the indazole derivative of the present disclosure was measured by analyzing DNA content using a flow cytometer. Cells were treated with compound 18c (formula 1-16) and compound 11k (formula 1-7) at concentrations of 0 (DMSO), 5, and 10 μM for 72 hours, and then the cells were harvested. Thereafter, the cells were fixed with 95% ethanol containing 0.5% Tween-20 for 24 hours, and stained with propidium iodide (PI, 50 μg/mL) and RNase (50 μg/mL) for 30 minutes. Afterwards, the degree of cancer cell death was analyzed using a flow cytometer.
In general, the cell cycle is divided into G1 (cell growth phase)—S(cell replication phase)—G2/M (cell division phase) according to the content of intracellular DNA. […] The results of this cell death within the cell cycle are manifested by the Sub-G1 region, and the percentage of Sub-G1 induced by the indazole derivative of the present disclosure is shown numerically in FIGS. 5B and 6B.
For orientation: Flow cytometry measures light scatter and fluorescence of single cells or particles in a stream.

For orientation: IC50 means the midpoint of a concentration-inhibition curve. Read a low IC50 as greater potency.

`COc1c(C(=O)Nc2ccc3c(C)nn(CCC4CCN(C)CC4)c3c2)ccc2c1C=CC(C)(C)O2` [compound 11k, 5-Methoxy-2,2-dimethyl-N-(3-methyl-1-(2-(1-methylpiperidin-4-yl)ethyl)-1H-indazol-6-yl)-2H-chromene-6-carboxamide] yielded an IC50 in the test with MDA-MB-231 cell line of 2.69 µM. For the same compound, in test [1], the “tumor size (visual inspection)” value is “reduced by more than half”, the tumor volume result is on record as “significantly reduced” and the tumor weight result is recorded as “significantly reduced”. Moreover, in test [2], the “G2/M phase of the cell cycle” value is “arrested the G2/M phase” and the “cell death (Sub-G1 population)” value is “significantly induced cell death”.
In turn, `COCCn1nc(NC(=O)c2ccc3c(c2OC)C=CC(C)(C)O3)c2ccccc21` [compound 18c, 5-Methoxy-N-(1-(2-methoxyethyl)-1H-indazol-3-yl)-2,2-dimethyl-2H-chromene-6-carboxamide] returned an IC50 with MDA-MB-231 cell line of 6.84 µM. Further, in test [1], the “tumor size (visual inspection)” value is recorded as “reduced by more than half”, the tumor volume result was “significantly reduced” and the tumor weight entry is on record as “significantly reduced”. Moreover, in test [2], the “G2/M phase of the cell cycle” value is “arrested the G2/M phase” and the “cell death (Sub-G1 population)” value is listed as “significantly induced cell death”.

For the origin of these results see patent publication US20260167629A1, “NOVEL INDAZOLE DERIVATIVE OR PHARMACEUTICALLY ACCEPTABLE SALT THEREOF, AND USE THEREOF” (KOREA UNIVERSITY RESEARCH AND BUSINESS FOUNDATION, priority 2022, published 2026).
